Data as given in PubChem BioAssay (NCI).
Several values for one entry are separate records, joined by “and”; a condition that tells them apart may be missing. Equal values may be shown once.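 The compound was tested at five concentrations on cells cultured in 96-well plates, with a 48-hour exposure period. Here, GI50 denotes the concentration required for 50% inhibition of growth. TGI marks complete inhibition of growth.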

How the values were obtained:
Test in all cases: NCI anticancer screen, dose series, 48 h
[1] = tested on: BT-549 breast
[2] = tested on: HS 578T breast
[3] = tested on: SW-620 colon
[4] = tested on: MDA-MB-435
[5] = tested on: SF-539 CNS
[6] = tested on: MOLT-4 leukemia
[7] = tested on: NCI-H226 lung
[8] = tested on: RPMI-8226 leukemia

Structure (SMILES) | GI50 [1] [µM] | TGI [1] [µM] | GI50 [2] [µM] | TGI [2] [µM] | GI50 [3] | TGI [3] | GI50 [4] | TGI [4] | GI50 [5] [µM] | TGI [5] | GI50 [6] | TGI [6] | GI50 [7] [µM] | TGI [7] | GI50 [8] [µM] | TGI [8]
COc1cccc(NC(=O)c2ccc(NC3=C(Cl)C(=O)N(Cc4ccccc4)C3=O)cc2)c1 | 13.8 | 33.8 | 11.1 | 30.9 | 10.3 µM | 25.7 µM | 10.6 µM | 41.4 µM | 17.3 | 31 µM | 2.82 µM | 16.2 µM | 14.8 | 28.8 µM | – | –
COC(=O)[C@H](Cc1cn(C)cn1)NC(=O)[C@@H](NC(=O)Nc1cc(C(F)(F)F)cc(C(F)(F)F)c1)C(C)(C)C | > 10 | > 10 | – | – | > 10 µM | > 10 µM | > 10 µM | > 10 µM | > 10 | > 10 µM | > 10 µM | > 10 µM | > 10 | > 10 µM | > 10 | > 10 µM
CC1=CC2=C(C#N)C(=O)OC2(C)C(c2ccccc2)C1 (configuration not stated) | – | > 100 | – | > 100 | – | > 100 µM | – | > 100 µM | – | > 100 µM | – | > 100 µM | – | > 100 µM | – | > 100 µM
N#Cc1ccc(NC(=O)Nc2nc3ccc(OC(F)(F)F)cc3s2)cc1 | 2.78 | 9.36 | 1.78 | 7.65 | 1.61 µM | 12 µM | 1.42 µM | 6.79 µM | 2.9 | 10.1 µM | 1.88 µM | 13.4 µM | 1.98 | 10.4 µM | 1 | 13.3 µM
S=C1SCN(C2CCCCCCCCCCC2)CN1C1CCCCCCCCCCC1 | – | > 100 | – | > 100 | – | > 100 µM | – | > 100 µM | – | > 100 µM | – | > 100 µM | – | > 100 µM | – | > 100 µM
Cc1ccccc1C[P+](c1ccccc1)(c1ccccc1)c1ccccc1 | 2.7 | 71.7 | 2.13 | 33.7 | 2.33 µM | > 100 µM | 0.938 µM | 21.3 µM | 2.34 | > 100 µM | 4.9 µM | > 100 µM | 3.18 | > 100 µM | 0.39 | 5.4 µM
C=C1C(=O)O[C@H]2[C@H]1CC/C(Cn1cc(-c3ccsc3)nn1)=C\CC[C@@]1(C)O[C@@H]21 | 1.8 | 5.21 | 2.82 | 16 | 1.32 µM | 2.68 µM | 1.85 µM | 4.54 µM | 1.8 | 3.47 µM | 2.59 µM | 6.9 µM | 2.09 | 5.51 µM | – | –
Clc1nc(-c2ccccc2)nc(Cl)c1Cl | – | 35.6 | – | 47.3 | – | 15.1 µM | – | 26.8 µM | – | 33.9 µM | – | 15 µM | – | 28.1 µM | – | 28.1 µM
COc1ccc2c(c1)c(-c1ccc(-c3cn(C)c4ccc(OC)cc34)o1)cn2C | 5.11 | 18.2 | 4.2 | 20.1 | 4.55 µM | 16.7 µM | 32.9 µM | > 100 µM | 2.47 | 9.27 µM | > 100 µM | > 100 µM | 23.6 | > 100 µM | 2.25 | 5.07 µM
COc1c(N2CCN(CN3C(=O)C(=O)c4ccccc43)C(C)C2)c(F)cc2c(=O)c(C(=O)O)cn(C3CC3)c12 (configuration not stated) | > 100 | > 100 | 91.2 | > 100 | 33.5 µM | > 100 µM | 82.3 µM | > 100 µM | > 100 | > 100 µM | 36.8 µM | > 100 µM | > 100 | > 100 µM | 78.7 | > 100 µM
CCOC(=O)c1csc(-c2nc(CCNC(=O)c3ccccc3)sc2Cl)n1 | – | > 100 | – | > 100 | – | > 100 µM | – | > 100 µM | – | > 100 µM | – | > 100 µM | – | > 100 µM | – | > 100 µM
O=C1CCC(N2C(=O)c3cccc(NCCOCCOCCNC(=O)c4cc5c(o4)C(=O)c4ccccc4C5=O)c3C2=O)C(=O)N1 (configuration not stated) | 1.47 | 2.84 | 2.4 | 7.76 | 1.95 µM | 4.64 µM | 1.23 µM | 2.63 µM | 1.62 | 2.99 µM | 2.73 µM | 7.11 µM | 1.7 | 3.8 µM | 2.43 | 7.85 µM
CCC1(N)C(=O)OCc2c1cc1n(c2=O)Cc2cc3ccccc3nc2-1 (configuration not stated) | – | > 100 | > 69.6 | > 100 | 12.9 µM | > 100 µM | 21.1 µM | > 100 µM | 2.93 | 11.8 µM and > 47.9 µM | 1.83 µM | > 41.7 µM | 2.71 | 34.3 µM and 97.1 µM | 3.66 | 81.5 µM and > 100 µM
CN(C)C1C(=O)C(C(N)=O)=C(O)C2(O)C(=O)C3=C(O)c4c(O)cccc4C(C)(O)C3CC12 (configuration not stated) | – | > 100 | – | > 100 | 23.3 µM and > 100 µM | 46.1 µM and > 100 µM | 21 µM and > 100 µM | 36.8 µM and > 100 µM | – | – | 23.5 µM and > 100 µM | 46.5 µM and > 100 µM | – | > 100 µM | – | > 100 µM
CC1(C)OC2COC(c3[nH]nc4c(=O)[nH]c(=O)[nH]c34)C2O1 (configuration not stated) | – | > 100 | – | > 100 | – | > 100 µM | – | > 100 µM | – | > 100 µM | – | > 100 µM | – | > 100 µM | – | > 100 µM
COC(=O)CCCNC(=O)C(=O)c1c(O)c(O)c(C(C)C)c2cc(C)c(-c3c(C)cc4c(C(C)C)c(O)c(O)c(C(=O)C(=O)NCCCC(=O)OC)c4c3O)c(O)c12 | 1.19 | 7.28 | 0.975 | 11.6 | 0.74 µM | 5.52 µM | 1.06 µM | 5.85 µM | 0.997 | 5.17 µM | – | – | 0.575 | 2.94 µM | 0.592 | > 32.5 µM
COCC(=O)NC/C=C/c1ccc2ncnc(Nc3ccc(Oc4ccc(C)nc4)c(C)c3)c2c1 | 6.81 | 24.9 | 17.2 | 56.1 | 17.4 µM | 40.9 µM | 11.4 µM | 29.9 µM | 15.1 | 31.7 µM | 13.8 µM | 53.8 µM | 14.8 | 69.3 µM | 8.75 | 36.1 µM
